Measurements: patent US20120164203A1, “PROCESS FOR PREPARATION OF STABLE, MICROENCAPSULATED AND SUSTAINED RELEASE BIOCIDAL ACTIVES AND COMPOSITION THEREOF” (priority 2009, published 2012)

Assays:
[1] = Analytical determination of active ingredient in the leachate (water, UV-Vis); assay type: physicochemical; details: active 5% in water
Experimental: The active ingredient is added (5%) to required amount of water. After a certain amount of time, the leachate is collected through a filter and the same amount of water replaced. The amount of active ingredients of each leachate is determined analytically by UV-Vis.

[2] = tested on: Escherichia coli ATCC 11229; assay: Antimicrobial activity (log reduction) on flexible PVC surface, Z 2801:2000; assay type: cell-based; details: 24 hrs incubation
Experimental: (§1) The aqueous biocidal dispersion containing encapsulated biocide was prepared as described in example 19 to provide 20% BIT (prepared as described in Example 5). The dispersion was incorporated into flexible PVC using a Brabender. The plastic samples containing different BIT concentrations were tested according to the Japanese HS Z 2801:2000 entitled “Antimicrobial products-test for antimicrobial activity and efficacy.”
(§2) Briefly, samples were inoculated on the surface with bacterial strains such as Escherichia coli ATCC 11229 or Staphylococcus aureus ATCC 6538. After 24 hrs of incusbation, the samples were examined to determine the number of bacterial count left on the surface of the sample. A reduction in the bacterial population or count was estimated based on the plate count of the control (untreated or blank) sample and treated samples. The results of this activity indicate that aqueous biocidal dispersion prepared according to the present invention provides better antibacterial activity through larger log reduction and is shown in Table 3.

[3] = tested on: Staphylococcus aureus ATCC 6538; assay: as above; assay type: cell-based; details: 24 hrs incubation
Experimental: as §1, §2

[4] = Analytical determination of active ingredient leaching out of a paint film (UV-Visible); assay type: physicochemical; details: PVA paint film, total IPBC incorporated 2000 ppm
Experimental: The active ingredient is added to PVA paint to a final concentration of 2000 ppm. Drawdown of the paint samples are prepared by casting a 3-mil film onto drawdown paperboard (Lanetta). The drawdown samples are allowed to dry at room temperature for 24 hrs. A sample of 2×6 cm is cut. The cut samples are then placed in 100 ml of water in a closed beaker for the different duration of time limits. At different time intervals the water is collected and replaced with the same amount of water. The quantity of the active ingredient present in each leachate is determined by UV-Visible spectroscopic method.

SMILES: CCNc1nc(NC(C)(C)C)nc(SC)n1 [Non-encapsulated Terbutryn, Terbutryn]
- Terbutryn in water (in ppm) ([1]; leaching time 5 minutes): 150 ppm
- Terbutryn in water (in ppm) ([1]; leaching time 1 hr): 90 ppm
- Terbutryn in water (in ppm) ([1]; leaching time 24 hrs): 79.8 ppm

SMILES: CN(C)C(=O)Nc1ccc(Cl)c(Cl)c1 [Non-encapsulated Diuron, Diuron]
- Diuron in water (in ppm) ([1]; leaching time 30 minutes): 53.6 ppm
- Diuron in water (in ppm) ([1]; leaching time 2 hrs): 51.4 ppm
- Diuron in water (in ppm) ([1]; leaching time 4 hrs): 54.6 ppm
- Diuron in water (in ppm) ([1]; leaching time 20 hrs): 52.0 ppm

SMILES: O=c1[nH]sc2ccccc12 [BIT, 1,2-benzisothiazoline-3-one]
- Antimicrobial Activity (Log Reduction) E. coli ([2]; 100 ppm in flexible PVC): 0.9
- Antimicrobial Activity (Log Reduction) E. coli ([2]; 250 ppm in flexible PVC): 2.5
- Antimicrobial Activity (Log Reduction) S. aureus ([3]; 100 ppm in flexible PVC): 0.2
- Antimicrobial Activity (Log Reduction) S. aureus ([3]; 250 ppm in flexible PVC): 0.6

SMILES: CCCCNC(=O)OCC#CI [Non-encapsulated IPBC, 3-iodo-2-propargyl butyl carbamate]
- IPBC in water (in ppm) ([1]; leaching time 5 minutes): 356 ± 4 ppm
- IPBC in water (in ppm) ([1]; leaching time 1 hr): 273 ± 10 ppm
- IPBC in water (in ppm) ([1]; leaching time 24 hrs): 236 ± 22 ppm
- IPBC (in ppm) leached from Paint film ([4]; leaching time 1 hr): 1050 ppm
- IPBC (in ppm) leached from Paint film ([4]; leaching time 3 hrs): 102 ppm
- IPBC (in ppm) leached from Paint film ([4]; leaching time 15 hrs): 65 ppm
- IPBC (in ppm) leached from Paint film ([4]; leaching time 48 hrs): 78 ppm
